The text below walks through data of US12162877B2, “Human dihydroorotate dehydrogenase (hDHODH) inhibitors and their use in targeting oncological diseases sensitive to pyrimidine starvation” (DRUG DISCOVERY AND CLINIC S.R.L., priority 2018, dated 2024).

Broadly, the logD is lipophilicity at a set pH, counting ionised and neutral species. Read a low logD as a more hydrophilic compound.

The nature of data set [1]: log D (pH 7.4) shake-flask. The format is physicochemical. The settings on record: n-octanol/PBS.
Protocol: C log P and log D (pH 7.4). […] The partition coefficients between n-octanol and PBS at pH 7.4 (log D^7,4), were obtained using the shake-flask technique at room temperature. In the shake-flask experiments, 50 mM of phosphate buffered saline pH 7.4 was used as the aqueous phase. The organic (n-octanol), and aqueous phases were mutually saturated by shaking for 4 h. The compounds were solubilized in the buffered aqueous phase at the highest concentration compatible with solubility and appropriate amounts of n-octanol were added. The two phases were shaken for about 20 min, by which time the partitioning equilibrium of solutes had been reached, and then centrifuged (10000 rpm, 10 min). The concentration of the solutes was measured in the aqueous phase by UV spectrophotometer (Varian Cary 50BIO); absorbance values (recorded for each compound at the wavelength of maximum absorption), were interpolated in calibration curves obtained using standard solutions of the compounds (r^2>0.99). Each log D value is an average of at least six measurements.
For data set [2], the target named is recombinant hDHODH (Homo sapiens (Human), UniProt Q02127). Nature of the data set: hDHODH inhibition assay (DCIP reduction). The format is biochemical. The protocol: Protein expression and purification. […] The vector produces hDHODH as an N-terminal GST-fusion protein. The plasmid pFN2A-hDHODH was transformed into BL21 (DE3), pyrD E. coli cells for protein production. Cells were grown at 37° C. in LB medium supplemented with 0.1 mM flavin mononucleotide. […] Triton X-100 was added to the lysate, to a final concentration of 1%, before centrifugation at 14000×g for 40 min at 4° C. The clarified supernatant was incubated with DNase I (Sigma Aldrich), for 30 min at room temperature, supplemented with 2 mM DTT and filtered through a 0.45 μm syringe filter. The GST-fused enzyme was purified from the bacterial lysate using affinity chromatography on immobilized glutathione-sepharose columns and fast protein liquid chromatography (FPLC). The GST tag was not removed for further studies.
Chain of recombinant hDHODH (Q02127 31-395): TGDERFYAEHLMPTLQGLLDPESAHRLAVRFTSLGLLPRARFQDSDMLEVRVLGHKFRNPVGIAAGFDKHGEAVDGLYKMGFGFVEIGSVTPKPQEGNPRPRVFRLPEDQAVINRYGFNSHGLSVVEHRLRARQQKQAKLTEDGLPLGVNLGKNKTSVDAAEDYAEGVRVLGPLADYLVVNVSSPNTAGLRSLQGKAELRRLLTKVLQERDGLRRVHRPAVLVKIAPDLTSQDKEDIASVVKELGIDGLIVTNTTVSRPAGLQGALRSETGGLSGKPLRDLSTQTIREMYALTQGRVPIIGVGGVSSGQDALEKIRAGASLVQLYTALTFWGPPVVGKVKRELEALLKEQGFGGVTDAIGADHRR
hDHODH inhibition assay. Inhibitory activity was assessed by monitoring the reduction of 2,6-dichloroindophenol (DCIP), which is associated with the oxidation of dihydroorotate as catalyzed by the DHODH enzyme. The enzyme was preincubated for five minutes at 37° C. in Tris-buffer solution (pH 8.0), with coenzyme Q10 (100 μM), with the compounds to be tested used at different concentrations (final DMSO concentration 0.1% v/v), with DCIP (50 μM). The reaction was initiated by the addition of DHO (500 μM), and the reduction was monitored at λ=650 nm. […] Values are means±SE of three independent experiments.

Data set [3] is described as follows: Serum stability. In kind it is in vitro ADME. The settings on record: 37° C.
Protocol: Serum stability. A solution of the selected compound in DMSO was added to human serum (sterile-filtered from human male AB plasma, Sigma-Aldrich), to obtain the desired final concentration with 2% of co-solvent. The resulting solution was shaken in an orbital shaker at 37° C. for 24 h. At appropriate time intervals (0, 0.5, 1, 4 and 24 hours), 300 μL of the reaction mixture were withdrawn and added to 600 μL of trifluoroacetic acid (TFA), 0.1% in acetonitrile in order to deproteinize the serum. The samples were vortexed, sonicated for 3 min and then centrifuged for 5 min at 2500×g. The clear supernatant was filtered and analyzed by RP-HPLC. HPLC analyses were performed on a HP 1100 chromatograph system (Agilent Technologies, Palo Alto, CA, USA), equipped with a quaternary pump (model G1311A), a membrane degasser (G1379A), and a diode-array detector (DAD) (model G1315B), integrated into the HP1100 system. Data analyses were processed using a HP ChemStation system (Agilent Technologies). The analytical column was a ZORBAX Eclipse XDB-C18 (4.6×150 mm, 5 μm, Agilent Technologies). The mobile phase consisted of acetonitrile 0.10% TFA/0.1% TFA 70/30 at flow-rate=1.0 mL/min. […] Single compound quantification was achieved using calibration curves that were obtained by analyzing standard solutions. The results are expressed as % of unmodified parent compound at 24 h.
The test system of data set [4] is THP1. Put plainly: Differentiation assay, THP1 (CD14). In kind it is cell-based, human. How it is done:
(§1) Cell lines and drug treatment.
(§2) Flow cytometric analysis. The expression of CD11b (PE-conjugated BD Bioscience San Jose, CA, USA), and CD14 (FITC-conjugated Beckam Coulter CA, USA), cell surface molecules was determined by flow cytometry analysis. […] Samples were acquired on a FACS Calibur and dead cells were excluded from the analyses, according to the use of propidium iodide (Sigma-Aldrich, Milan, Italy). Data were processed using Kaluza software version 1.2 (Beckman Coulter Fullerton, CA).
(§3) Differentiation assay. 1×10^4 cells (THP1 and U937), were plated in 96 well round-bottom plates and DHODH inhibitors were added, from 0.1 μM to 10 μM, to a volume of 200 μl of medium. The differentiation kinetics was monitored from day 1 to day 4 for U937, and to day 5 for THP1. Cells were washed and either stained with CD11b (U937), or with CD11b and CD14 (THP1), as described above. The differentiation assay was also performed in the presence of uridine 100 μM and analyzed on day 3

Data set [5] concerns HCT-116 (colon cancer cells). Nature of the data set: Cytotoxicity in human cancer cell lines, HCT-116. In kind it is cell-based. The note with it: HCT-116, 72 h. The text has this:
(§4) In the last phase of their study, the present inventors evaluated the effects of our hDHODH inhibitors on a series of human cancer cell lines.

In data set [6] the test system is MDA MB231 (breast cancer cells). Put plainly: Cytotoxicity in human cancer cell lines, MDA MB231. The settings on record: MDA-MB-231, MDA MB231, 72 h. In kind it is cell-based.
Text: as §4

Data set [7] has as its system U937. Put plainly: Differentiation assay, U937 (CD11b). The format is cell-based, human. The protocol: as §1, §2, §3
Data set [8] in a line: Protein binding in vitro (ultrafiltration). The format is in vitro ADME. The settings on record: human serum protein binding.
Protocol: Protein binding in vitro. Free- and protein-bound drug separation was achieved by ultrafiltration using commercially available membrane systems (Centrifree ultrafiltration devices with ultracel YM-T membrane, Merck). A solution of selected compound in DMSO was added to human serum (sterile-filtered from human male AB plasma, Sigma-Aldrich), to obtain the desired final concentration with 2% of co-solvent. 1 mL of the solution obtained from the sample reservoir of the ultrafiltration device was gently shaken in an orbital shaker at 37° C. for 1 h. […] The concentrations of the compounds in the ultrafiltrate and filtrate were determined using reverse-phase HPLC and the chromatographic conditions described above. […] The recovery of the ultrafiltration process was calculated in order to discover whether any compound was lost during ultrafiltration, considering the limited solubility of tested compounds.
For data set [9], the system named is A2780 (ovarian cancer cells). Put plainly: Cytotoxicity in human cancer cell lines, A2780. The format is cell-based. The settings on record: A2780, 72 h.
Text: as §4

The subject of data set [10] is PHA-stimulated PBMC. Nature of the data set: Immunosuppression assay, PHA-stimulated PBMC proliferation. The format is cell-based.
Protocol: Immunosuppression assay. PBMCs were isolated via the Ficoll/Isopaque (Lymphoprep), density gradient centrifugation of buffy coat leukapheresis residues from the fresh blood samples of healthy donors. Purified cells were grown and maintained in culture medium at 37° C. in a 5% CO2 humidified atmosphere. […] IC50 values were determined using nonlinear regression plots on GraphPad Prism6. Values are means±SE of three independent experiments. Where indicated, the antiproliferative effect was evaluated in the presence of 100 μM uridine.
Data set [11] deals with THP1. Nature of the data set: CFSE-based cytotoxic activity assay, THP1. The note with it: THP1, 0.01-10 μM, 3 days, FIG. 5A. In kind it is cell-based.
Protocol: (§5) CFSE-based cytotoxic activity assay. […] The same experiments were repeated in the presence of uridine 100 μM. Cells were harvested and 1 μg/ml of propidium iodide was added to assign the ratio of cell death. The percentage of specific lysis was calculated as described and in accordance with the following equation: [dead targets in sample (%)−spontaneously dead targets (%))/(100−spontaneously dead targets (%))]×100. Spontaneous release was obtained by incubating cell lines in medium supplemented with the corresponding percentage of DMSO used for the dilution of compounds, whereas maximal release was obtained after treatment with triton solution.
Data set [12] deals with PANC-1 (pancreatic cancer cells). Nature of the data set: Cytotoxicity in human cancer cell lines, PANC-1. The format is cell-based. The note with it: PANC-1, 72 h.
Text: as §4

For data set [13], the system named is Jurkat T cells. Nature of the data set: Proliferation assay, Jurkat T cells (Hoechst 33258 DNA content). In kind it is cell-based. The settings on record: 72 h.
Protocol: Cells were maintained at 37° C. in a 5% CO2 humidified atmosphere. Cells were passaged every 2-3 days and discarded after 15 passages. […] Final dilutions were made in culture medium.
Proliferation assay. […] IC50 values were determined using nonlinear regression plots on GraphPad Prism6. Values are means±SE of three independent experiments. Where indicated, the antiproliferative effect was evaluated in the presence of 100 μM uridine.^32
Data set [14] relates to HEPG2 (liver hepatocellular cancer cells). Nature of the data set: Cytotoxicity in human cancer cell lines, HEPG2. The format is cell-based.
Text: as §4

Data set [15] deals with U937. Put plainly: CFSE-based cytotoxic activity assay, U937. The format is cell-based. The note with it: U937, 0.01-10 μM, 3 days, FIG. 5A.
Protocol: as §5
The conditions of data set [16]: 24 h, pH 7.4.
Protocol: Solubility assay at pH 7.4. […] The samples were shaken in an orbital shaker at 25° C. for 24 h. These suspensions were filtered through a PTFE 0.45 m filter (VWR), and the solutions were chromatographically analyzed. […] LC analysis was performed using an Agilent Zorbax SB-Phenyl Column (4.6×250, 5 μm). […] The analyses started with 40% of eluent B and the following gradient profile was used: (time min, % B) 18.0, 100%; 26.0, 100%; 28.0, 40%. […] Single compound quantification was made using the relative calibration curve which was obtained by analyzing standard solutions in MeOH. Solubility is expressed as μM concentration of the saturated solution.
The test system of data set [17] is PHA-stimulated PBMC. The settings on record: inhibition of PHA-stimulated PBMC proliferation; value from ref. 29; read-out: Immunosuppression IC50 ± SE; cited from earlier work.
In data set [18] the test system is Jurkat T cells. Nature of the data set: Cytotoxicity assay, Jurkat T cells (CellTox green). The note with it: 72 h, concentration causing significant (≥30%) cytotoxic effect. The format is cell-based.
Protocol: Cell culture and drug treatment. […] Cells were maintained at 37° C. in a 5% CO2 humidified atmosphere. Cells were passaged every 2-3 days and discarded after 15 passages. […] Final dilutions were made in culture medium.
Cytotoxicity assay. […] Cells (5×10^3/well), were seeded in a white-opaque 96-well plate and exposed to increasing concentrations (0.001-100 μM), of each compound or vehicle (DMSO), for 72 h. Values are means±SE of three independent experiments and represent the concentrations that cause significant (≥30%), cytotoxic effects.
Setting [19] is: enzymatic assay, values in text, read-out: hDHODH IC50.
Setting [20] is: in vitro assay, means ± SE of three experiments, read-out: hDHODH IC50 ± SE.
Setting [21] is: with uridine, read-out: Cytotoxicity IC50 with Uridine.

Structures are written as SMILES. In brackets after ≈: the same amount, converted by molar mass. Where two headings read alike, the source gives them in different places.

As for `O=C(Nc1c(F)c(F)c(-c2cccc(F)c2)c(F)c1F)c1c(O)nn2ccccc12` [Compound 32, 2-Hydroxy-N-(2,3,3′,5,6-pentafluoro-[1,1′-biphenyl]-4-yl)pyrazolo[1,5-a]pyridine-3-carboxamide], in [1], the logD is over 3. The IC50 in [2] (setting [19]) worked out at 2 nM.
Turning to `Cc1cc(NC(=O)c2c(O)nn3ccccc23)ccc1Oc1ccccc1` [Compound 9, 2-Hydroxy-N-(3-methyl-4-phenoxyphenyl)pyrazolo[1,5-a]pyridine-3-carboxamide], the IC50 in data set [2] (setting [20]) is 480 ± 31 nM.
On to `O=C(Nc1c(F)c(F)c(-c2ccccc2)c(F)c1F)c1c(O)nn2ccccc12` [Compound 4, 2-Hydroxy-N-(2,3,5,6-tetrafluoro-[1,1′-biphenyl]-4-yl)pyrazolo[1,5-a]pyridine-3-carboxamide], for which, in data set [2] (enzymatic assay, ratio of IC50), the “times more potent than teriflunomide (hDHODH)” value is 320 times.
With `Cc1c(-c2ccc(-c3ccccc3F)cc2)nc2ccc(F)cc2c1C(=O)O` [Brequinar, brequinar], the “% compound after 24 h in human serum” value in data set [3] came to 98%. The “myeloid differentiation, CD14 expression” value in data set [4] (THP1, FIG. 6B) is listed as “strong differentiation”. In addition, the “differentiation when uridine is added” value in data set [4] (THP1, uridine 100 μM, day 3, FIG. 6D) is on record as “reversed”; in data set [7] (U937, uridine 100 μM, day 3, FIG. 6C), “reversed”. Further, the IC50 in [5] (read-out: Cytotoxicity IC50) is 97 nM; in data set [5] (setting [21]), 3000 nM; in [6] (read-out: Cytotoxicity IC50), 1300 nM; in data set [6] (setting [21]), over 100000 nM; in [9] (read-out: Cytotoxicity IC50), under 100 nM; in data set [9] (setting [21]), 15500 nM. Besides, the IC50 in data set [12] (read-out: Cytotoxicity IC50) was 280 nM; in data set [12] (setting [21]), under 100 nM; in data set [13] (in the presence of 100 μM uridine, read-out: Proliferation IC50 ± SE + Uridine) it was 94200 ± 2080 nM; in data set [13] (read-out: Proliferation IC50 ± SE), 910 ± 70 nM; in [14] (HEPG2, 72 h, with uridine, read-out: Cytotoxicity IC50 with Uridine), over 10000 nM; in data set [14] (HepG2, 72 h, read-out: Cytotoxicity IC50), 46 nM. Moreover, the “myeloid differentiation, CD11b expression” value in data set [7] (U937, FIG. 6A) is “strong differentiation”. Besides, the “% bound” value in data set [8] came out at 98.83%. Besides, the “antiproliferative effect on PHA-activated PBMCs, times greater than teriflunomide” value in data set [10] stood at 10 times. Moreover, the “cytotoxicity” value in [11] was “strong and concentration-dependent cytotoxicity”; in data set [15], “strong and concentration-dependent cytotoxicity”. The “Solubility in PBS with 2% DMSO” value in [16] was 449 µM.
Regarding `Cc1cccc2c(C(=O)Nc3c(F)c(F)c(-c4ccccc4)c(F)c3F)c(O)nn12` [Compound 5, 2-Hydroxy-7-methyl-N-(2,3,5,6-tetrafluoro-[1,1′-biphenyl]-4-yl)pyrazolo[1,5-a]pyridine-3-carboxamide], the IC50 in data set [2] (setting [19]) was determined as 4.3 nM.
On the same count and under the same terms, as for `O=C(Nc1c(F)c(F)c(-c2ccccc2)c(F)c1F)c1c(O)nn2c1CCCC2` [Compound 30, 2-Hydroxy-N-(2,3,5,6-tetrafluoro-[1,1′-biphenyl]-4-yl)-4,5,6,7-tetrahydropyrazolo[1,5-a]pyridine-3-carboxamide], the figure is 5.9 nM.
For the compound `C/C(O)=C(\C#N)C(=O)Nc1ccc(C(F)(F)F)cc1` [Teriflunomide, teriflunomide], in data set [17], the IC50 was 54300 nM. Also, the “Cytotoxicity (effect ≥30%)” value in data set [18] worked out at 53 ± 3 µM. Moreover, the “Solubility in PBS” value in data set [16] was determined as 2692 µM (≈ 727 µg/mL).
Regarding `O=C(Nc1ccc(Oc2ccccc2)cc1)c1c(O)nn2ccccc12` [Compound 8, 2-Hydroxy-N-(4-phenoxyphenyl)pyrazolo[1,5-a]pyridine-3-carboxamide], the IC50 in data set [2] (setting [19]) stood at 760 nM; in data set [2] (setting [20]) it was 760 ± 136 nM.
Compound `O=C(Nc1c(F)c(F)c(-c2cccc(C(F)(F)F)c2)c(F)c1F)c1c(O)nn2ccccc12` [Compound 33, 2-Hydroxy-N-(2,3,5,6-tetrafluoro-3′-(trifluoromethyl)-[1,1′-biphenyl]-4-yl)pyrazolo[1,5-a]pyridine-3-carboxamide] yielded a logD in [1] of over 3. Moreover, in data set [2] (setting [19]), the IC50 stood at 2.3 nM.
For `Cn1c(=O)c(C(=O)Nc2c(F)c(F)c(-c3ccccc3)c(F)c2F)c2ccccn21` [Compound 7, 1-Methyl-2-oxo-N-(2,3,5,6-tetrafluoro-[1,1′-biphenyl]-4-yl)-1,2-dihydropyrazolo[1,5-a]pyridine-3-carboxamide], in data set [2] (setting [20]), the IC50 was over 5000 nM.
On to `Cn1nc(O)c(C(=O)Nc2c(F)c(F)c(-c3ccccc3)c(F)c2F)n1` [Compound 2], for which the IC50 in [2] (setting [20]) turned out to be 45 ± 13 nM.
Take `Cc1cc(Oc2ccccc2)c(C)cc1NC(=O)c1c(O)nn2ccccc12` [Compound 10, N-(2,5-Dimethyl-4-phenoxyphenyl)-2-hydroxypyrazolo[1,5-a]pyridine-3-carboxamide]: the IC50 in data set [2] (setting [19]) and in [2] (setting [20]) was 43 nM in each case.
